Tests used:
[1] = Test 3-1: metabolic stability test in human hepatic microsome; format: in vitro ADME; settings: microsome 0.1 mg/mL, test compound 0.1 μmol/L, 37° C., 30 minutes
Description: Test 3-1: Metabolic Stability Test in Human Hepatic Microsome
(§1) The metabolic stability of the present compound in human hepatic microsome was evaluated as mentioned below. Human hepatic microsome was obtained from Xenontech. Human hepatic microsome, NADPH, and each test compound were mixed in 25 mmol/L phosphate buffer solution (pH 7.4) to reach the following concentrations as shown below, and the mixture was incubated at 37° C. for 30 minutes. • Human hepatic microsome: 0.1 mg/mL • NADPH: 3.2 mmol/L • Test compound: 0.1 μmol/L
(§2) The residual ratio of test compound in each sample after 30 minutes was measured by LC-MS, and the metabolic stability in human hepatic microsome was calculated from the following formula. Metabolic stability in human hepatic microsome (mL/min/mg protein)=−LN (residual ratio)/30/0.1

[2] = Test 3-2: metabolic stability test in human hepatic microsome; format: in vitro ADME; settings: microsome 0.5 or 1.0 mg/mL, test compound 0.1 μmol/L, 30 or 60 minutes
Description: Test 3-2: Metabolic Stability Test in Human Hepatic Microsome
as §1, with “For more accurate evaluation of the metabolic stability in human hepatic microsome, the metabolic” for “The metabolic”, “evaluated at an appropriate concentration of human hepatic microsome” for “evaluated”, “for 60” for “for 30”, “microsome: 0.5 or 1.0” for “microsome: 0.1”, “• NAPDH:” for “• NADPH:”
as §2, with “of a” for “of”, “30 or 60” for “30”, “ratio)/reaction time/concentration of human hepatic microsome” for “ratio)/30/0.1”

[3] = molecular target: hERG channel (Homo sapiens (Human), UniProt Q12809); experiment: Test 5: inhibitory activity for hERG channel (whole cell patch clamp, hERG-CHO cells); format: cell-based; settings: hERG-CHO cells, auto patch clamp
hERG channel, sequence (Q12809 whole entry): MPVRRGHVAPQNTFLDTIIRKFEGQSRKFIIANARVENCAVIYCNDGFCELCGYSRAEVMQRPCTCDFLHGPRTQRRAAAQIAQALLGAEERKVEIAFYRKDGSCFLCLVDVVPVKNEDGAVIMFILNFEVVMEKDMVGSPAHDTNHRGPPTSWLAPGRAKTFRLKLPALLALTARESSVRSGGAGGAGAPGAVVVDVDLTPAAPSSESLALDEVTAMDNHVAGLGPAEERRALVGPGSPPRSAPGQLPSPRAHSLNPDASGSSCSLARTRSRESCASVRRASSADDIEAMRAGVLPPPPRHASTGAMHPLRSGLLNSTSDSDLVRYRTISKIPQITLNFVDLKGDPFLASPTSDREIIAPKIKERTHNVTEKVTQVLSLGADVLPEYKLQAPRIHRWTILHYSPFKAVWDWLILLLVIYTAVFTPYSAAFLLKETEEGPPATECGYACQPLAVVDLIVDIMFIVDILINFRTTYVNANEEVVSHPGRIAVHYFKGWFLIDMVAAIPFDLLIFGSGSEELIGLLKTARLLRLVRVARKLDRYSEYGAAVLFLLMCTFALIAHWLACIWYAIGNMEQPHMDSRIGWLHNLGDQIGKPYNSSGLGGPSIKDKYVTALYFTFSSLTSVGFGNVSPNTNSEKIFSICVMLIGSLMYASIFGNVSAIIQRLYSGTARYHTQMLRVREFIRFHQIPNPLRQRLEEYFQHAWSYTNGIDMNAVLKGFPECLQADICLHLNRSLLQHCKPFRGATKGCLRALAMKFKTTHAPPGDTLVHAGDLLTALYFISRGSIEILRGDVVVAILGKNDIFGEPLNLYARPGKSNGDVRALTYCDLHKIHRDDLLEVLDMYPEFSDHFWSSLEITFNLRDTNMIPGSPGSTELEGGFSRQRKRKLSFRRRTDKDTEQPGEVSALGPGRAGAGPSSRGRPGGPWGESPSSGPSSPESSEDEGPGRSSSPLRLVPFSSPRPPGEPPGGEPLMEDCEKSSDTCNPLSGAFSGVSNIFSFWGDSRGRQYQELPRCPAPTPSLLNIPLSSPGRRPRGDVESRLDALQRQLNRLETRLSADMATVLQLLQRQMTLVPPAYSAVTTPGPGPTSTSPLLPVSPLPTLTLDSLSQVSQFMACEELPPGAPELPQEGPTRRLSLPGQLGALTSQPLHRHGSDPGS
Description: Test 5: Evaluation of Inhibitory Activity for hERG Channel
Inhibitory activity of the present compound for hERG channel was measured by whole cell patch clamp method with an auto patch clamp system using CHO cells in which hERG channel involved in human rapidly activating delayed rectifier potassium current (IKr) was forcibly expressed.
hERG-CHO cells purchased from ChanTest Cop. were cultured in a CO2 incubator at 37° C., and dissociated from a flask with trypsin shortly before the measurement of hERG current to prepare a cell suspension.
The cell suspension, the extracellular fluid, the intracellular fluid, and the measurement plate were set in an auto patch clamp system, and hERG current was measured by whole cell patch clamp method. […] Each pulse interval was 15 seconds. The data analysis was carried out with Qube Assay Software (Sophion Sophion). The test was carried out by applying incrementally 4 concentrations of each test compound, and the average of the maximum peak tail currents which were obtained from the last 3 stimulations in each concentration was determined as the evaluated data.

[4] = Test 4: predictive test of human half life; settings: calculated from rat distribution volume, serum unbound fraction and Test 3-2 stability
Description: Test 4: Predictive Test of Human Half Life
The present compound was intravenously administered to a rat as an aqueous solution of 0.01 mol/L hydrochloric acid. Blood was collected on 5 minutes, 15 minutes, 30 minutes, 1 hour, 2 hours, 4 hours, 6 hours, and 24 hours after the administration. Plasma was obtained from the collected blood, the drug concentration in plasma was measured by LC-MS, and the distribution volume of rat was calculated from the transition of the concentration.
The unbound fraction rate of the present compound in human or rat serum was measured by equilibrium dialysis method.
The half-life in human was calculated according to the following formula using the results of the distribution volume of rat, the unbound fraction rate in human or rat serum, and the metabolic stability in human hepatic microsome obtained in Test 3-2.

[5] = molecular target: T1, human 5-HT7 receptor (Homo sapiens (Human), UniProt P34969); experiment: Test 2: antagonist activity for human 5-HT7 receptor (aequorin luminescence, CHO-K1 cells); format: cell-based; settings: Gα16
T1 sequence (P34969 whole entry): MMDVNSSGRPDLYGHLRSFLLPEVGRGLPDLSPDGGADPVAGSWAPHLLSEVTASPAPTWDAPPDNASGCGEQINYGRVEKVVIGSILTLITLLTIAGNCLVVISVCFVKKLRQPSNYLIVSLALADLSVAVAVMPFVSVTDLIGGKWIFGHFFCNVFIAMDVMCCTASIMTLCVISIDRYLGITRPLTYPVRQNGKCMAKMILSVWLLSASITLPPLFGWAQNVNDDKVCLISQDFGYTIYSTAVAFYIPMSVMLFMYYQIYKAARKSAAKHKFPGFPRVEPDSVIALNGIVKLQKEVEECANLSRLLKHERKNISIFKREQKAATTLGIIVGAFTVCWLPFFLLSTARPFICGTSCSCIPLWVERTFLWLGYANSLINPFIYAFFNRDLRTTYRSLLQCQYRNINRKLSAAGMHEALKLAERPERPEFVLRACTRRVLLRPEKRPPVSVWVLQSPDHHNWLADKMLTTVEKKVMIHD
Description: (§3) Test 2: Evaluation of Antagonist Activity for Human 5-HT2A Receptor and Human 5-HT7 Receptor
(§4) Aequorin, Gα 16 protein, and each receptor were transiently expressed in CHO-K1 cells (Chinese hamster ovary). The cells were cultivated in a CO2 incubator at 37° C. overnight, seeded into a 384-well plate, and stood at room temperature for 2 hours. Each compound dissolved in DMSO was added thereto, and changes in luminescence were measured by FDSS/μCELL drug discovery screening support system (Hamamatsu Photonics K.K.). As for antagonist activity, inhibitory activity of each compound was calculated by setting the luminescence level of wells to which 10 μmol/L endogenous ligand was added as 100%.

[6] = molecular target: human D2 receptor (Homo sapiens (Human), UniProt P14416); experiment: Test 1: binding activity for human D2 receptor ([3H]Spiperone, CHO cell membrane fraction); settings: [3H]Spiperone, room temperature 60 minutes
human D2 receptor, sequence (P14416 whole entry): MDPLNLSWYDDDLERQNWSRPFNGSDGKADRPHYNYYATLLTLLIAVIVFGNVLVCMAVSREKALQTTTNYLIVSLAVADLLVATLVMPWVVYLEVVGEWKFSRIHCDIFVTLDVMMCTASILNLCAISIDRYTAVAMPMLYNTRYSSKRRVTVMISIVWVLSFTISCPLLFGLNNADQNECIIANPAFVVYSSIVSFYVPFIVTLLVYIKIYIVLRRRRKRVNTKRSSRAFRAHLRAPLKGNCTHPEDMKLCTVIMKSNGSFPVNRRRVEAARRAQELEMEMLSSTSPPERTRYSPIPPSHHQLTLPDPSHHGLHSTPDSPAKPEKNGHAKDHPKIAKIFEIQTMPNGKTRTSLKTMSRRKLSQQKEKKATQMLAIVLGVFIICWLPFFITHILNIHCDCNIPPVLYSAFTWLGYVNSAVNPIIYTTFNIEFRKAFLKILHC
Description: (§5) Ki value was evaluated from dissociation constant which was calculated from saturated binding tests, and a substrate concentration, and it was used as an index for binding affinity.

[7] = molecular target: T1, human 5-HT7 receptor; experiment: Test 1: binding activity for human 5-HT7 receptor ([3H]SB-269970, CHO cell membrane fraction); settings: [3H]SB-269970, room temperature 60 minutes
Description: as §5

[8] = molecular target: human 5-HT2A receptor (Homo sapiens (Human), UniProt P28223); experiment: Test 2: antagonist activity for human 5-HT2A receptor (aequorin luminescence, CHO-K1 cells); format: cell-based; settings: Gα16
human 5-HT2A receptor, sequence (P28223 whole entry): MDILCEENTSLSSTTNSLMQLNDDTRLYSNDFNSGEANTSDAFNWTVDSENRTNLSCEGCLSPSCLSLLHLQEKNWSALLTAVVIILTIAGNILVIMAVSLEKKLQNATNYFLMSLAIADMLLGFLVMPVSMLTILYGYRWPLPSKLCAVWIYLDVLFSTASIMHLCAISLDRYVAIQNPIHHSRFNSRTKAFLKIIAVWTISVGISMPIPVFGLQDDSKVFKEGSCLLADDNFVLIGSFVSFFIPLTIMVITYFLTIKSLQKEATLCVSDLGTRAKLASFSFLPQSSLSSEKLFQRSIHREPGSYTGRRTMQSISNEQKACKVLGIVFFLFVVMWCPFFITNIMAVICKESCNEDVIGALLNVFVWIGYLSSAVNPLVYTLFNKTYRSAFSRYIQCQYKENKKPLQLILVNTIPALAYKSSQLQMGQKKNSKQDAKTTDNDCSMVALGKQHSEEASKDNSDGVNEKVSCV
Description: as §3, §4

| Compound | Metabolic stability in human hepatic microsome [1] [mL/min/mg protein] | Metabolic stability in human hepatic microsome [2] [mL/min/mg protein] | IC50 [3] [nM] | Predicted half-life [4] [h] | IC50 [5] [nM] | Ki [6] [nM] | Ki [7] [nM] | IC50 [8] [nM] |
| --- | --- | --- | --- | --- | --- | --- | --- | --- |
| CCN(CCN1CCC(c2noc3cc(F)ccc23)CC1)C(=O)[C@H](C)O [Example 16, (2S)—N-Ethyl-N-{2-[4-(6-fluoro-1,2-benzoisoxazol-3-yl)piperidin-1-yl]ethyl}-2-hydroxypropanamide] | <0.05 | 0.018 | 4800 | 3 | – | – | – | – |
| CC(C)N(CCN1CCC(c2noc3cc(F)ccc23)CC1)C(=O)[C@@H](C)O [Example 42] | <0.05 | – | 6400 | – | 9 | 74 | 2.5 | – |
| CCN(CCN1CCC(c2noc3ccc(F)cc23)CC1)C(=O)[C@H](C)O [Example 45] | <0.05 | – | > 10000 | – | 49 | > 300 | 22.6 | – |
| CCN(CCN1CCC(c2c[nH]c3ccccc23)CC1)C(=O)CCO [Example 47] | <0.05 | – | 5400 | – | 43 | 457 | 8.9 | – |
| CCN(CCN1CCC(c2c[nH]c3cc(F)ccc23)CC1)C(=O)CCO [Example 48] | <0.05 | – | 2900 | – | 18 | 80 | 2.7 | – |
| CCN(CCN1CCC(c2c[nH]c3ccccc23)CC1)C(=O)[C@@H](C)O [Example 49] | <0.05 | – | > 10000 | – | 16 | > 1000 | 22.6 | – |
| CCN(CCN1CCC(n2ccc3cc(F)ccc32)CC1)C(=O)C(C)O (centres unmarked) [Example 50] | <0.05 | – | – | – | 81 | > 1000 | 13.5 | 49 |
| CCN(CCCN1CCC(c2noc3cc(F)ccc23)CC1)S(=O)(=O)CCO [Example 53] | <0.05 | – | 7200 | – | 44 | < 100 | 1.4 | – |
| CCN(CCCN1CCC(c2noc3cc(F)ccc23)CC1)S(=O)(=O)C(C)CO (centres unmarked) [Example 56] | <0.05 | – | 2100 | – | 6 | < 100 | 0.4 | – |
| CCN(CCN1CCC(c2c[nH]c3ccccc23)CC1)S(=O)(=O)CCO [Example 57] | 0.06 | – | – | – | 100 | 210 | 8.7 | 56 |
| CCN(CCN1CCC(c2noc3cc(F)c(C)cc23)CC1)S(=O)(=O)CCO [Example 58] | <0.05 | – | > 10000 | – | 103 | > 1000 | 19.4 | – |
| CCN(CCN1CCC(c2noc3ccc(C)cc23)CC1)S(=O)(=O)CCO [Example 59] | 0.079 | – | > 10000 | – | 62 | > 1000 | 13.6 | – |
| CCN(CCN1CCC(c2noc3ccccc23)CC1)S(=O)(=O)CCO [Example 61] | <0.05 | – | > 10000 | – | 15 | 514 | 12.7 | – |
| CCN(CCN1CCC(c2c[nH]c3cc(F)ccc23)CC1)S(=O)(=O)CCO [Example 62] | <0.05 | – | 5400 | – | 28 | 104 | 2.8 | – |
| CCN(CCN1CCC(n2ncc3cc(F)ccc32)CC1)S(=O)(=O)CCO [Example 63] | <0.05 | – | 14500 | – | 46 | 532 | 6.9 | – |
| CCN(CCN1CCC(n2ncc3cc(F)ccc32)CC1)S(=O)(=O)C(C)CO (centres unmarked) [Example 64] | 0.097 | – | > 10000 | – | 101 | 348 | 2.4 | – |
| CCN(CCN1CCC(c2noc3cc(F)ccc23)CC1)C(=O)C1CNCC1O (centres unmarked) [Example 66] | <0.05 | – | > 10000 | – | 70 | 212 | 5.4 | – |
| CCN(CCN1CCC(c2noc3cc(F)ccc23)CC1)C(=O)C1CNCCC1O (centres unmarked) [Example 67] | <0.05 | – | > 10000 | – | 72 | < 100 | 0.9 | – |
| CCN(CCN1CCC(c2noc3cc(F)ccc23)CC1)C(=O)C1(O)CCCNC1 (centres unmarked) [Example 69] | <0.05 | – | > 10000 | – | 85 | < 100 | 1.5 | – |
| CCN(CCN1CCC(c2noc3cc(F)ccc23)CC1)C(=O)C1(O)CCNC1 (centres unmarked) [Example 70] | <0.05 | – | > 10000 | – | 9 | 52 | 3.7 | – |
| CCN(CCN1CCC(c2noc3cc(F)ccc23)CC1)C(=O)C1(O)CCCN(C(C)=O)C1 (centres unmarked) [Example 72] | 0.057 | – | 9900 | – | 8 | < 100 | 10.6 | – |
| CCN(CCN1CCC(c2noc3cc(F)ccc23)CC1)C(=O)C1CN(C(C)=O)CCC1O (centres unmarked) [Example 74] | <0.05 | – | 6700 | – | 77 | 138 | 6.8 | – |
| CCN(CCN1CCC(c2noc3cc(F)ccc23)CC1)C(=O)C1CN(C)CC1O (centres unmarked) [Example 75, N-Ethyl-N-{2-[4-(6-fluoro-1,2-benzoisoxazol-3-yl)piperidin-1-yl]ethyl}-4-hydroxy-1-methylpyrrolidine-3-carboxamide] | <0.05 | – | 3800 | – | 80 | 124 | 3.6 | – |
| CCN(CCN1CCC(c2noc3cc(F)ccc23)CC1)C(=O)C1CN(C)CCC1O (centres unmarked) [Example 76, N-Ethyl-N-{2-[4-(6-fluoro-1,2-benzoisoxazol-3-yl)piperidin-1-yl]ethyl}-4-hydroxy-1-methylpiperidine-3-carboxamide] | <0.05 | – | > 10000 | – | 65 | 193 | 14.4 | – |

Reference: patent US11339151B2, “Aliphatic acid amide derivative” (Sumitomo Dainippon Pharma Co., Ltd., priority 2019, dated 2022)
